The text below walks through data of patent publication US11547703B2, “Substituted fused heteroaromatic tricyclic compounds as kinase inhibitors and the use thereof” (IMPACT THERAPEUTICS (SHANGHAI), INC, priority 2017, dated 2023).

One experiment deals with ATM enzyme (human) (Homo sapiens, UniProt Q13315). As to the kind of experiment: ATM kinase assay (HTRF, phosphorylation of GST-cMyc-p53). The format is biochemical. Conditions: 0.5 h; detected concentration 1 μm. The method, then: ATM enzyme (human) was added to the reaction solution containing 30 nM GST-cMyc-p53 and 10 μM Mg/ATP, and then 50 times the concentration of the tested compound (or reference compound AZD0156) dissolved in 100% DMSO was added to the final concentration of 10 μM/1 μM/0.1 μM/0.01 μM. The reaction was initiated by the addition of a Mg/ATP mixture and incubation for 30 minutes at room temperature, the reaction was quenched by the addition of a stop solution containing EDTA. Finally, the detection buffer containing the d2-labeled anti-GST monoclonal antibody and the europium-labeled anti-phospho p53 (Ser15) antibody was added. The plate was then read in time resolved fluorescence mode and the homogeneous time resolved fluorescence (HTRF) signal was determined according to the equation: HTRF=10000×(Em665nm/Em620nm). Each compound sample was repeated in duplicate. The negative control contained all components except the ATM enzyme, and the positive control contained all components. All reactions were quenched by adding EDTA.
Sequence of ATM enzyme (human) (Q13315 whole entry): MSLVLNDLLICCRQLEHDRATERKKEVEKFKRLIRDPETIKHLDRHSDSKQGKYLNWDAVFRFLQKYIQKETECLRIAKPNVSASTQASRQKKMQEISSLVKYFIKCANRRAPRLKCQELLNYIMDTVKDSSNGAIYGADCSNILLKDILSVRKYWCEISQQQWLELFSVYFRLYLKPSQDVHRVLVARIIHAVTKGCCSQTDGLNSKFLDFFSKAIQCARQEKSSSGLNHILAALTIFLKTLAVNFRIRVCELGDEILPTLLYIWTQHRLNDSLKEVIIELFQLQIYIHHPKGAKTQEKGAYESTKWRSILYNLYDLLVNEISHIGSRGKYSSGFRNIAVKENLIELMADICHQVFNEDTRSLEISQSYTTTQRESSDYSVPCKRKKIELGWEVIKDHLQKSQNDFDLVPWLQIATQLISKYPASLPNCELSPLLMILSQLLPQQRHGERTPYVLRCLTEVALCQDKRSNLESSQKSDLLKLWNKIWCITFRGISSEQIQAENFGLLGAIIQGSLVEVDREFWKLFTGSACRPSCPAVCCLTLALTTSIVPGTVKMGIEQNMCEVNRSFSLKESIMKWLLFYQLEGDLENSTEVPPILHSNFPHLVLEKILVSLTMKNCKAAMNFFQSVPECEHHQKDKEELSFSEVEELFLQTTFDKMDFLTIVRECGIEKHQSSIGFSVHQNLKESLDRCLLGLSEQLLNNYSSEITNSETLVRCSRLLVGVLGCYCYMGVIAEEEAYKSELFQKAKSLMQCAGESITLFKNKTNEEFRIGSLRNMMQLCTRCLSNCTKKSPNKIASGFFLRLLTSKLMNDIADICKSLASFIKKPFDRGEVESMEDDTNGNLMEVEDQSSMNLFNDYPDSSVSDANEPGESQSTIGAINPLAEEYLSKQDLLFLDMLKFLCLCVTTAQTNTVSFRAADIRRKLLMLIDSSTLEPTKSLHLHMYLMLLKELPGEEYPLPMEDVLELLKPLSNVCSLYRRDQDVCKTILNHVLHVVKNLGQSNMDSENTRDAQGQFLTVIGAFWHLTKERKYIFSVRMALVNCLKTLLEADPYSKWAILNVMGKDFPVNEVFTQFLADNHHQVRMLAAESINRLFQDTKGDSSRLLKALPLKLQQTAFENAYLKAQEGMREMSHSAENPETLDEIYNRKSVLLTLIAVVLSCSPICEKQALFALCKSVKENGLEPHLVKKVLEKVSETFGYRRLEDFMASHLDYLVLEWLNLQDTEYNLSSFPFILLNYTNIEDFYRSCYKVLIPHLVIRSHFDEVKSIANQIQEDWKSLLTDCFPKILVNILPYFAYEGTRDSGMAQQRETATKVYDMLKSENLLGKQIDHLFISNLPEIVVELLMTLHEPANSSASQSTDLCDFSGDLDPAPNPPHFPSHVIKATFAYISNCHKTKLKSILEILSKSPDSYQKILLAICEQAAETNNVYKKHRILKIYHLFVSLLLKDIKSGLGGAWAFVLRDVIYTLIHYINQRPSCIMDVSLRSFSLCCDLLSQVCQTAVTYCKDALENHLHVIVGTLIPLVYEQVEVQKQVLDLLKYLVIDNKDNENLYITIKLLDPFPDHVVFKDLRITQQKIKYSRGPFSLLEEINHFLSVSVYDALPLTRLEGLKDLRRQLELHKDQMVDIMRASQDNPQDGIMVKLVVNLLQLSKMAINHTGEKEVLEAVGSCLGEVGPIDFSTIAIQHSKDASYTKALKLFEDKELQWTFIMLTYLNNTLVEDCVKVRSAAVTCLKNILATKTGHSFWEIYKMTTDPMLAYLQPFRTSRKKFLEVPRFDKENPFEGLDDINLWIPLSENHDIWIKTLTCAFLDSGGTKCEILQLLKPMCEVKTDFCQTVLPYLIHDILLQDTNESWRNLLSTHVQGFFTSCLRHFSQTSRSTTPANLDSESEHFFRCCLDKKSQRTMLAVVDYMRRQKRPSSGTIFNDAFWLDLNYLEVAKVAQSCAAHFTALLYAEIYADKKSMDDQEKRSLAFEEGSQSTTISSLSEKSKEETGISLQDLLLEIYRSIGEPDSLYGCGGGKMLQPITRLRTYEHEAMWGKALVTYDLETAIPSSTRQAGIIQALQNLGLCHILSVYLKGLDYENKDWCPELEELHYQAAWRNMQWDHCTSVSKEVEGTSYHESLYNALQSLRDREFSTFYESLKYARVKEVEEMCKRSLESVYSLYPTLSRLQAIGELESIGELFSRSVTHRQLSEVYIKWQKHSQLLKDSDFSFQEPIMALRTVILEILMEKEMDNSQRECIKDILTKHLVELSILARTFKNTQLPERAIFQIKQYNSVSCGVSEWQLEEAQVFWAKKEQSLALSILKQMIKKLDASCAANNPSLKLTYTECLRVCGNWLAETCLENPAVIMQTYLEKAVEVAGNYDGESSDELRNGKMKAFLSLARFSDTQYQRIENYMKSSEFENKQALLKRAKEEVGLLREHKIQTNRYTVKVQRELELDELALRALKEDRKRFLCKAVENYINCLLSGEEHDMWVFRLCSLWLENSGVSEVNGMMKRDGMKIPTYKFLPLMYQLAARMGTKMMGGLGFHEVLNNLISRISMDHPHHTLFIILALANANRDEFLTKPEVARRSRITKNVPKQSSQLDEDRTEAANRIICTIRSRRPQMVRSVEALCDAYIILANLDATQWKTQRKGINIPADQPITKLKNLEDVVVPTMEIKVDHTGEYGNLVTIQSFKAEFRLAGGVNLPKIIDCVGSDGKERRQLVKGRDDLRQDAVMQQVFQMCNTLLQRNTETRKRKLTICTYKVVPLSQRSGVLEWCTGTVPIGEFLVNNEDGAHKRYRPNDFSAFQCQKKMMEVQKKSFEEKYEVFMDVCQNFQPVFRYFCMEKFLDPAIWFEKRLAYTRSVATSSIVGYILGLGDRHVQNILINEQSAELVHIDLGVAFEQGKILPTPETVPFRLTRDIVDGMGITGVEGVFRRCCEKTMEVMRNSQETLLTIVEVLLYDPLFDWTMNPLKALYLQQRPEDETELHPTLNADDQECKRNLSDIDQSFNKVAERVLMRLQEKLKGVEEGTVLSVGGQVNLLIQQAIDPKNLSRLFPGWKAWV
The compounds were serially diluted to 10 concentrations with 100% DMSO at the ratio of 1:3 and 1:10 (the last concentration was negative control of DMSO), then added to the ATM buffer and diluted to a final concentration of 10, 3, 1, 0.3, 0.1, 0.03, 0.01, 0.003, 0.001 and 0 μM, respectively. ATM kinase inhibition was detected by using the method described above. The curve equation for calculating IC50 value is as follows: […]
wherein, C is the concentration of compound and D is the slope factor. Table 2 summarizes the IC50 values of compounds inhibiting ATM kinase.

The subject of experiment [1] is human colon cancer cell SW620. As to the kind of experiment: MTT assay, growth of SW620 cells, compounds combined with CPT-11. It is filed as cell-based. The method, then: (§1) SW620 cells were digested by trypsinase, centrifuged at 800 rpm for 5 minutes, the supernatant was discarded, resuspended with fresh medium (RPMI 1640 medium+10% FBS) and counted. The cells were seeded into 96-well cell culture plate with appropriate cell density and incubated overnight in a 37° C. 5% CO2 incubator. The stock solutions of the tested compound and the reference compound AZD0156 were serially diluted to 8 concentrations by DMSO at the ratios of 1:3 and 1:10, respectively, and the last concentration was negative control of DMSO (0 μM, the final concentration of DMSO was 1%). 5 μL of each concentration was added to 120 μL of medium (25 times diluted) and mixed by shaking. The overnight cells were taken and the culture medium was removed, 195 μL of fresh medium containing 205 nM CPT-11 was added to each well, and 5 μL of diluted medium containing the corresponding concentration of the tested sample was added respectively, and the culture plate was then placed in the 5% CO2 cell culture incubator at 37° C. for 5 days. After removing the original solution, 100 μL of fresh serum-free DMEM medium containing MTT (0.5 mg/mL) was added to each well, the culture was continued. After 4 hours, the original solution was removed, 100 μL of DMSO was added into each well, the 96-well plates were shaken away from light for 10 minutes and placed in a multi-function reader to read the absorbance at the wavelength of 552/630/690 nm. GraphPad Prism 6.0 was used to analyze the data. The inhibitory activity of compounds on cell proliferation was plotted based on cell viability and compound concentration. The IC50 value was fitted by a sigmoidal dose response curve equation Y=100/(1+10^(Log C−Log IC50)), where C was the concentration of compound.
On the technique in general: Formazan colour is commonly taken as a measure of viable cells.

Experiment [2] has as its system human breast cancer cell MDA-MB-468. Nature of the experiment: MTT assay, growth of MDA-MB-468 cells. The format is cell-based. The method, then: as §1, with “MDA-MB-468 cells” for “SW620 cells”, “1:10, respectively:” for “1:10, respectively, and”, “medium (PRMI 1640+5% FBS)” for “medium containing 205 nM CPT-11”, “for 7 days (On the fourth day, the medium containing drugs was removed and fresh medium containing drugs was added for continuous cultivation).” for “for 5 days.”

For `CN(C)C1CCN(c2ccc(-c3ccc4nc5cccc(N6CCC(N(C)C)CC6)c5n4c3)cc2)CC1` [Example 56, N,N-dimethyl-1-(4-(9-(4-(dimethylamino)piperidin-1-yl)benzo[4,5]imidazo[1,2-a]pyridin-2-yl)phenyl)piperidin-4-amine], the inhibition at 1 µM on ATM enzyme (human) stood at 81%. In addition, the IC50 amounted to 0.0409 µM in experiment [1] (Homo sapiens, SW-620, 120 h, 205 nM CPT-11, 5 days, MTT) and 0.0414 µM in experiment [2] (Homo sapiens, MDA-MB-468, 168 h, single agent, 7 days, MTT). Besides, the “growth of SW620 cell (in words)” value in experiment [1] (MTT assay) is “inhibited the growth”. In addition, in experiment [2] (MTT assay), the “growth of MDA-MB-468 cell (in words)” value is listed as “inhibited the growth”.

By inhibition is commonly meant the change of the read-out against control, counted positive when it falls. As a reminder, the IC50 is the concentration that gives 50% inhibition.
